Assays:
[1] = biological target: T1, Rat SGLT1 (Rattus norvegicus, UniProt P53790); test: 14C-AMG uptake in CHOK cells expressing rat SGLT1; type: cell-based; settings: mean of 2 experiments
T1 construct: expressed in transfected cells; host or cells: CHO-K (CHOK) cells
T1 sequence (P53790 1-665): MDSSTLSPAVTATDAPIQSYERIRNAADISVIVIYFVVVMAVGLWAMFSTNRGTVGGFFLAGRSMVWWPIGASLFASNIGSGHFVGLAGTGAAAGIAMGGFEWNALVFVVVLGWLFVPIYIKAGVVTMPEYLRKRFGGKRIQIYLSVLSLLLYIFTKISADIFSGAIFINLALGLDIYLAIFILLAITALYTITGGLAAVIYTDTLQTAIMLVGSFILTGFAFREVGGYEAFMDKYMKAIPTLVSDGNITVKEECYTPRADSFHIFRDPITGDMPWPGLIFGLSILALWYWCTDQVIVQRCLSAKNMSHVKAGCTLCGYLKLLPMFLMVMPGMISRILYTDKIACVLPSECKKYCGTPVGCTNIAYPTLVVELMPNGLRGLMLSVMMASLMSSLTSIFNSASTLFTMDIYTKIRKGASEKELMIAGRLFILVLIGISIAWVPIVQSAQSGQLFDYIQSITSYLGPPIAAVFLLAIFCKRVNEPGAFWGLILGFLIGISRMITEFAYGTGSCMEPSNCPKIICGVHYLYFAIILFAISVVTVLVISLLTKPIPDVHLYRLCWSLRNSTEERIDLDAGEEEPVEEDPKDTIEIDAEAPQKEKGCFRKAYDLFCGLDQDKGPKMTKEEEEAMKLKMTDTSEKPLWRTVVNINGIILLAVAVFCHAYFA
Protocol: Cells were seeded into 96-well plates.
All data are presented as mean ± standard error.

[2] = biological target: T2, Human SGLT3 (Homo sapiens, UniProt Q9NY91); test: Two-electrode voltage clamp recording of oocytes expressing human SGLT3 (DNJ-induced currents); type: cell-based
T2 construct: expressed in transfected cells; host or cells: oocytes (from Nasco), injected with mRNA
T2 sequence (Q9NY91 1-659): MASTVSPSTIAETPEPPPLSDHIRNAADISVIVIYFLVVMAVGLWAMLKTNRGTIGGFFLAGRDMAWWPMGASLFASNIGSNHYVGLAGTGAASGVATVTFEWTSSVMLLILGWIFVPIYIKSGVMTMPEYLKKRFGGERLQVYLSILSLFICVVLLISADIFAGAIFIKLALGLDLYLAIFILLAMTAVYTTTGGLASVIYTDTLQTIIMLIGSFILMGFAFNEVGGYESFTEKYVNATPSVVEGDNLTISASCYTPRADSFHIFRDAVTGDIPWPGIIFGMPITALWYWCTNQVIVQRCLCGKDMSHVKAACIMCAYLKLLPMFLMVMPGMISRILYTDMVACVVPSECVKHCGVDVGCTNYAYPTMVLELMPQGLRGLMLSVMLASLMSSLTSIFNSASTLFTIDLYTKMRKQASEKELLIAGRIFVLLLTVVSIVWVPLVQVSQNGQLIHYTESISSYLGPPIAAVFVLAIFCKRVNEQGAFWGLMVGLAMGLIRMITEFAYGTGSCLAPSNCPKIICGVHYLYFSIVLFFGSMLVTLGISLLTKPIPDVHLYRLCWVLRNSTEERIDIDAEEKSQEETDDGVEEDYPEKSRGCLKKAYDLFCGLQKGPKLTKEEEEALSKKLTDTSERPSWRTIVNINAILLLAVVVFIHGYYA
Protocol: Oocytes were obtained from Nasco (Fort Atkinson, Wisconsin, USA). Stage V–VI oocytes were injected with 50 nl of either human SGLT3 mRNA (at 1 ng/nl) or distilled water (control) and incubated at 18°C in a calcium-free solution (92 mM NaCl, 2 mM KCl, 1 mM MgCl2, 5 mM HEPES, 0.05 mg/ml gentamicin at pH 7.5) for 4–6 days before recording. The extracellular recording solution contained 92 mM NaCl, 2 mM KCl, 1.8 mM CaCl2, 1 mM MgCl2, and 5 mM HEPES at pH 7.5. Injected oocytes were impaled with 2 microelectrodes filled with 3 M KCl (resistance of ∼0.5–3 MΩ) and voltage clamped to −120 mV, at which continuous recordings were made (filtered at 5 kHz and sampled at 625 Hz). To establish the baseline in the absence of agonist, oocytes were first perfused for 85 seconds with a control buffer (92 mM NaCl, 2 mM KCl, 1.8 mM CaCl2, 1 mM MgCl2, 5 mM HEPES at pH 7.5). […] Finally, phlorizin (3 mM) was applied in the presence of 50 µM DNJ for 160 seconds. All experiments were performed at 22°C. Currents in the presence of 50 µM DNJ were subtracted from leak currents (currents in control buffer alone) to obtain DNJ-induced currents (IDNJ). Effects of compounds were calculated as: % Inhibition = 100×(IDNJ−Icmpd)/IDNJ, where Icmpd is the DNJ-induced and leak-subtracted current in the presence of a compound or DMSO. Due to lack of effect at the highest dose tested, a dose-response relationship was not examined.

[3] = system: db/db mice; test: Single-dose blood glucose lowering in db/db mice; type: in vivo, mouse; settings: for reduction of BG levels compared with vehicle-treated mice: 1 hour after treatment; for BG level: 6 hours, vehicle 479±3.9
From the text: Four rodent models were used in these experiments: (1) male C57BL/6J mice fed with a high-fat diet (D-12492 with 60 kcal% fat, Research Diets, Inc, New Jersey, USA) (diet-induced obese, insulin resistantmice [DIO]); (2) male C57BL/ksj-db/db hyperglycemic mice; (3) male Zucker fatty (ZF) obese, insulin resistant rats; and (4) male ZDF obese, hyperglycemic rats. All animals were housed according to standard procedures following a protocol approved by the IACUC in Drug Discovery at Johnson & Johnson Pharmaceutical Research & Development, LLC.
BG levels were monitored at 0, 0.5, 1, 3, 6, and 24 hours after dosing. […] BG levels were monitored weekly, and HbA1c, plasma glucose, and insulin levels were determined at the end of the 4-week treatment. An oral glucose tolerance test (OGTT) ([…] of body weight, given by gavage) was conducted in ZDF rats after 4 weeks of treatment. Blood was sampled at 0, 30, 60, and 120 minutes after glucose challenge from the tail vein for measurement of BG levels using a glucometer (One Touch Ultra, LifeScan, Milpitas, California, USA) and plasma insulin using ELISA method (ALPCO, Salem, New Hampshire, USA).

Cc1ccc([C@@H]2O[C@H](CO)[C@@H](O)[C@H](O)[C@H]2O)cc1Cc1ccc(-c2ccc(F)cc2)s1 [canagliflozin, Canagliflozin]
IC50 [1]: 0.571 µM | inhibition at 10 µM ([2]; 10 µM, SGLT3-injected oocytes, 50 µM DNJ, n = 9, DMSO 15.6±3.1%, difference not statistically significant): 23.4 ± 4.3% | effect on currents in sham-injected oocytes ([2]; 10 µM, sham (water)-injected oocytes, in the presence of 50 µM DNJ): did not affect currents | effect on DNJ-induced currents ([2]; oocytes expressing human SGLT3, column head IC50, nM): No inhibitory effect | reduction of BG levels compared with vehicle-treated mice ([3]; single dose 1 mg/kg): 22% | BG level ([3]; single dose 1 mg/kg): 208 ± 9.6 mg/dL | reduction of BG levels compared with vehicle-treated mice ([3]; single dose 10 mg/kg): 36% | BG level ([3]; single dose 10 mg/kg): 118 ± 9.0 mg/dL

Reference: PMC3280264 (PLoS ONE, 2012)
